From patent publication US12377110B2, “Fospropofol methods and compositions” (Epalex Corporation, priority 2019, dated 2025)
“And” between values parts separate entries of the source, which are not always exact repeats. Identical values can stand only once.

Assays:
[1] = Study No. 15-4 (GLP): 14-day once daily oral gavage toxicity of fospropofol disodium; format: in vivo, Beagle dogs; conditions: both sexes, dog, in vivo; 14 days once daily oral gavage, Beagle dogs
Procedure: (§1) The purpose of Study No. 15-4 (GLP) was to determine the potential toxicity of fospropofol in Beagle dogs when administered once daily by oral gavage for 14 days. […] Because the treatment-related clinical observations (consistent with the expected transient sedative actions of fospropofol) and effects on hematology and clinical chemistry parameters were considered nonadverse, the NOAEL was determined to be 160 mg/kg/day (3200 mg/m^2/day).
(§2) As in the rat, CNS-related clinical signs were observed which were consistent with the established pharmacodynamic effects of fospropofol. […] The NOAEL was determined to be 160 mg/kg/day (3200 mg/m^2/d) in male and female Beagle dogs.

[2] = test system: Beagle dogs; assay: as above; format: in vivo
Procedure: as §1, §2

[3] = Study A16 Part 2: PK of a single dose of 1200 mg fospropofol disodium following a high-fat meal; format: in vivo, human; conditions: for Effect of high-fat meal on exposure: 1200 mg within 30 minutes after the start of a high-fat meal
Procedure: Part 2 of Study A16 was a double-blind, placebo-controlled, single-close pilot study to investigate the PK, safety, and tolerability of 1200 mg of fospropofol disodium administered to healthy adult men and women following a high-fat meal.
Subjects were healthy adults (age 18-55 years inclusive, BMI 18-29.9 kg/m^2). A separate cohort of 15 subjects was randomly assigned to receive a single oral dose of either fospropofol disodium (n=12) or matching placebo (n=3) within 30 minutes (±1 minute) after the start of a standardized high-fat meal.
Subjects were admitted to the clinical unit for an overnight fast (Day −1), administered study drug on Day 1 within 30 minutes of the start a standardized high-fat meal, and remained in the clinical unit until Day 2.
Fospropofol disodium was formulated as powder in 6 HPMC capsules, each capsule containing 200 mg of fospropofol disodium (weight adjusted for water content). Placebo was administered as 6 matching capsules.

[4] = Study A17: PK of fospropofol and propofol after single oral dose of fospropofol disodium 800 mg in subjects with migraine; conditions: for AUC / Cmax / Tmax: female, human, po; for Cmax: Fospropofol Cmax; for Tmax: Fospropofol Tmax
Procedure: The study is planned to complete approximately 85 subjects. • Enrolled subjects will be asked to come to the study site for treatment when they experience a qualifying migraine headache. Dosing must occur within 4 hours after onset of the migraine symptoms. If treatment at the study site is not feasible or practicable within 4 hours after onset of migraine symptoms, subjects should use their usual medication for that headache and attempt to visit the clinic for treatment as soon as possible (within 4 hours) after onset of their next migraine headache. Dosing must occur within 60 days after enrollment (see Post-enrollment Period below). • At clinic check-in for treatment, study personnel will verify eligibility for closing regarding the criteria for a qualifying headache and adherence to post-enrollment study restrictions (see Eligibility for Dosing below). • Treatment will consist of a single oral dose of fospropofol disodium. […] Because the prevalence of migraine headaches is higher in women than in men, efforts will be made to enroll at least 50% women. • Subjects must meet the general inclusion and exclusion criteria listed below (Inclusion Criteria and Exclusion Criteria) at screening to be enrolled in the study. To be eligible for fospropofol disodium treatment after onset of a migraine headache, enrolled subjects must meet criteria specific to the presenting headache at clinic check-in (see Qualifying Headache below) and adhere to study restrictions specific to the period between enrollment and clinic check-in (see Post-enrollment Restrictions below). • Inclusion Criteria Subjects must meet all of the following criteria at screening to be enrolled in the study: • 1. Written informed consent approved by the Institutional Review Board (IRB) given before any study-related procedures are performed • 2. […] Complete abstinence alone can be used as a method of contraception. • 6. […] Able to comprehend the nature of the study, capable of giving written informed consent, and able to communicate effectively with clinic staff (as assessed by the investigator) • 8. Available to volunteer for the entire study duration and willing to adhere to all protocol requirements, including the post-enrollment restrictions (see Post-enrollment Restrictions below) • 9. Agrees not to post any information related to the study on any website or social media site (e.g., Facebook, Twitter, LinkedIn, Google+, etc.) until the entire trial has been completed • 10. Willing to forgo rescue medicine for at least 2 hours after initiation of treatment with study drug (see In-Clinic Rescue Medicine) • Exclusion Criteria Subjects to whom any of the following criteria apply at screening will be excluded: • 1. History of hemiplegic migraine (at any time in the past). • 2. History of headaches of any type occurring on ≥15 days/month during any of the 3 months prior to screening. • 3.

[5] = A17 vs. A16 800 mg Cohort, excluding subject 308
[6] = Study A17 vs. A16 800 mg Cohort, excluding subject 308
[7] = plasma, 800 mg, Mean, Mean without Subject 6008 (below limit of quantitation at all time points), Fospropofol Disodium 800 mg oral
[8] = plasma, 800 mg, Mean, N = 12 migraine subjects, Fospropofol Disodium 800 mg oral
[9] = individual migraine subjects, Fospropofol Disodium 800 mg oral
[10] = plasma, individual migraine subjects (N = 12), Fospropofol Disodium 800 mg oral

## CC(C)c1cccc(C(C)C)c1OCOP(=O)([O-])O.[Na+] [fospropofol disodium]
[1]
  NOAEL at 14 days: 160 mg/kg/day
[2]; 0, 50, 100, and 160 mg/kg/day for 14 consecutive days
  Tolerability: well tolerated at all close levels with no adverse findings
[2]; 0, 50, 100, and 160 mg/kg/day for 14 days
  Mortalities: no mortalities
[2]; 14 days once daily oral gavage, Beagle dogs
  NOAEL: 3200 mg/m^2/day
[2]; up to 160 mg/kg/day
  Histopathology, all tissues including GIT-related: no treatment-related histopathological findings
[2]; up to 160 mg/kg/day for 14 days
  Body weights, cardiovascular evaluations (ECGs, QTc), ophthalmology, clinical pathology, organ weights: no toxicologically significant changes

## CC(C)c1cccc(C(C)C)c1OCOP(=O)(O)O [fospropofol, (2,6-diisopropylphenoxy)methyl dihydrogen phosphate]
[3]
  Effect of high-fat meal on exposure: significant reduction in exposure
[3]; 1200 mg, high-fat meal vs fasting
  Mean exposure to fospropofol (both Cmax and AUC) under fed conditions relative to fasting: approximately 24%
[3]; both sexes, human, plasma, oral, 1200 mg, fed, no appreciable effect, read-out: Fospropofol Tmax (median)
  Tmax: 20 min
[3]; both sexes, human, plasma, oral fospropofol disodium 1200 mg, Fed (Cohort 8), n = 10/12, mean, read-out: Fospropofol AUC0-∞
  AUC(0-inf): 1080 ng·h/mL
[3]; both sexes, human, plasma, oral fospropofol disodium 1200 mg, Fed (Cohort 8), n = 10/12, mean, read-out: Fospropofol t1/2 (converted)
  half-life: 15.6 min
[3]; both sexes, human, plasma, oral fospropofol disodium 1200 mg, Fed (Cohort 8), n= 12, mean
  Cmax: 1790 ng/mL
[3]; both sexes, human, plasma, oral fospropofol disodium 1200 mg, Fed (Cohort 8), n= 12, mean, read-out: Fospropofol AUC0-T
  AUC(0-t): 993 ng·h/mL
[3]; both sexes, human, plasma, oral fospropofol disodium 1200 mg, Fed (Cohort 8), n= 12, median, read-out: Fospropofol Tmax
  Tmax: 19.8 min
[3]; oral fospropofol disodium 1200 mg, Fed (Cohort 8), n = 10/12, mean
  Fospropofol CL/F: 4122 L/h
[4]; [5]
  Ratio of mean fospropofol Auc1, migraine subjects (all female) to female healthy volunteers: 110%
  Ratio of mean fospropofol Auc2, migraine subjects (all female) to female healthy volunteers: 116%
  Ratio of mean fospropofol Auc4, migraine subjects (all female) to female healthy volunteers: 120%
  Ratio of mean fospropofol Cmax, migraine subjects (all female) to female healthy volunteers: 94%
  Ratio of mean fospropofol Tmax, migraine subjects (all female) to female healthy volunteers: 89%
[4]; [6]
  Ratio of mean fospropofol Auc1, migraine subjects to healthy volunteers: 121%
  Ratio of mean fospropofol Auc2, migraine subjects to healthy volunteers: 130%
  Ratio of mean fospropofol Auc4, migraine subjects to healthy volunteers: 135%
  Ratio of mean fospropofol Cmax, migraine subjects to healthy volunteers: 105%
  Ratio of mean fospropofol Tmax, migraine subjects to healthy volunteers: 98%
[4]; plasma, 800 mg, Fospropofol AUC1, Mean, Mean without Subject 6008 (below limit of quantitation at all time points), Fospropofol Disodium 800 mg oral
  AUC: 3360 ng·h/mL
[4]; plasma, 800 mg, Fospropofol AUC1, Mean, Mean, N = 12 migraine subjects, Fospropofol Disodium 800 mg oral
  AUC: 3080 ng·h/mL
[4]; plasma, 800 mg, Fospropofol AUC2, Mean, Mean without Subject 6008 (below limit of quantitation at all time points), Fospropofol Disodium 800 mg oral
  AUC: 4310 ng·h/mL
[4]; plasma, 800 mg, Fospropofol AUC2, Mean, Mean, N = 12 migraine subjects, Fospropofol Disodium 800 mg oral
  AUC: 3950 ng·h/mL
[4]; plasma, 800 mg, Fospropofol AUC4, Mean, Mean without Subject 6008 (below limit of quantitation at all time points), Fospropofol Disodium 800 mg oral
  AUC: 4650 ng·h/mL
[4]; plasma, 800 mg, Fospropofol AUC4, Mean, Mean, N = 12 migraine subjects, Fospropofol Disodium 800 mg oral
  AUC: 4260 ng·h/mL
[4]; [7]
  Cmax: 6320 ng/mL
  Tmax: 19.8 min
[4]; [8]
  Cmax: 5790 ng/mL
  Tmax: 19.8 min
[4]; [9]
  Fospropofol AUC4: 3837.04 ng·h/mL and 1469.88 ng·h/mL and 4303.32 ng·h/mL and 4814.33 ng·h/mL and 6942.73 ng·h/mL and 1702.48 ng·h/mL and 8572.36 ng·h/mL and 1248.45 ng·h/mL and 3152.5 ng·h/mL and 7130.22 ng·h/mL and 7986.57 ng·h/mL
  Fospropofol Cmax: 5163.62 ng/mL and 3285.03 ng/mL and 5036.79 ng/mL and 7527.26 ng/mL and 10597.13 ng/mL and 2219.93 ng/mL and 8307.86 ng/mL and 1419.1 ng/mL and 4507.39 ng/mL and 11463.93 ng/mL and 10001.18 ng/mL
  Fospropofol Tmax: 10 min and 40 min
[4]; [10]
  Fospropofol AUC 1 hr: 723.61 ng·h/mL and 2418.57 ng·h/mL and 5268.76 ng·h/mL and 6456.6 ng·h/mL and 2684.78 ng·h/mL and 1315.43 ng·h/mL and 3262.09 ng·h/mL and 3522.27 ng·h/mL and 5673.87 ng·h/mL and 1193.95 ng·h/mL and 4461.52 ng·h/mL
  Fospropofol AUC 2 hr: 1007.69 ng·h/mL and 3045.22 ng·h/mL and 6730.95 ng·h/mL and 7756.33 ng·h/mL and 3666.13 ng·h/mL and 1421.1 ng·h/mL and 4174.88 ng·h/mL and 4386.97 ng·h/mL and 6702.97 ng·h/mL and 1610.51 ng·h/mL and 6945.81 ng·h/mL

## CC(C)c1cccc(C(C)C)c1O [propofol, 2,6-diisopropylphenol]
[3]; 1200 mg
  Propofol mean AUC following a high-fat meal relative to fasting: approximately 40%
  Propofol mean Cmax under fed conditions relative to fasting: approximately 19%
[3]
  Effect of high-fat meal on exposure: significant reduction in exposure
[3]; both sexes, human, plasma, oral, 1200 mg, after a high-fat meal
  Tmax: 120 min
[3]; oral fospropofol disodium 1200 mg, Fed (Cohort 8), n = 7/12, mean
  Propofol CL/F: 3111 L/h
[4]; 800 mg, 11 migraine subjects
  Variability in propofol log AUC1 accounted for by time-to-treatment: ~63%
  Variability in propofol log AUC2 accounted for by time-to-treatment: ~55%
  Variability in propofol log AUC4 accounted for by time-to-treatment: ~40%
  Variability in propofol log Cmax accounted for by time-to-treatment: ~57%
[4]; 800 mg, 11 migraine subjects (all female)
  Association between time-to-treatment and log propofol Cmax, AUC1, AUC2, AUC4: statistically significant inverse association
[4]; 800 mg, linear regression
  Decrease of geometric mean propofol AUC1 per hour of delay in time-to-treatment: 67.2 % per hour
  Decrease of geometric mean propofol AUC1 per minute of delay in time-to-treatment: 1.84 % per minute
  Decrease of geometric mean propofol AUC2 per hour of delay in time-to-treatment: 62.5 % per hour
  Decrease of geometric mean propofol AUC2 per minute of delay in time-to-treatment: 1.62 % per minute
  Decrease of geometric mean propofol AUC4 per hour of delay in time-to-treatment: 47.7 % per hour
  Decrease of geometric mean propofol AUC4 per minute of delay in time-to-treatment: 1.08 % per minute
  Decrease of geometric mean propofol Cmax per hour of delay in time-to-treatment: 58.5 % per hour
  Decrease of geometric mean propofol Cmax per minute of delay in time-to-treatment: 1.45 % per minute
[4]; Study A17 vs. Study A16 800 mg Cohort, females only
  Ratio of mean propofol Auc4, migraine subjects (all female) to female healthy volunteers: 91%
